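Briefly, cells in 96-well plates were exposed to five compound concentrations for 48 h, and endpoints were estimated by linear interpolation. Abbreviation: GI50, concentration required for 50% inhibition of growth.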 Active and inactive are the calls of the source. Rule as the data show it: active = GI50 up to about 1.1 µM and inactive = higher.
Experiments:
Assay in all cases: inhibition of tumour cell growth, NCI panel, 48 h
[1] = system: SF-539
[2] = system: T47D
[3] = system: HOP-92
[4] = system: OVCAR-5
[5] = system: SNB-75
[6] = system: RXF 393
[7] = system: OVCAR-3
[8] = system: SK-MEL-2
[9] = system: SF-295
[10] = system: OVCAR-4
[11] = system: MCF7
[12] = system: HL-60
[13] = system: CAKI-1
[14] = system: CCRF-CEM
[15] = system: MDA-N
[16] = system: MDA-MB-435
[17] = system: SR
[18] = system: SN12C
[19] = system: TK-10
[20] = system: A498

SMILES | GI50 [1] | GI50 [2] | GI50 [3] | GI50 [4] | GI50 [5] | GI50 [6] | GI50 [7] | GI50 [8] | GI50 [9] | GI50 [10] | GI50 [11] | GI50 [12] | GI50 [13] | GI50 [14] | GI50 [15] | GI50 [16] | GI50 [17] | GI50 [18] | GI50 [19] | GI50 [20]
CCCC(=O)Nc1cc(/C=C/C(=O)N2CC(CCl)c3c2cc([N+](=O)[O-])c2ccccc32)n(C)c1 (stereo not given) | 56.1 µM (inactive) | > 100 µM (inactive) | > 100 µM (inactive) | > 100 µM (inactive) | 6.12 µM (inactive) | 59.4 µM (inactive) | > 100 µM (inactive) | > 100 µM (inactive) | > 52.1 µM (inactive) | > 100 µM (inactive) | 13.8 µM (inactive) | 0.767 µM (active) | 47.1 µM (inactive) | 3.84 µM (inactive) | > 100 µM (inactive) | > 100 µM (inactive) | 0.796 µM (active) | > 100 µM (inactive) | > 100 µM (inactive) | 8.49 µM (inactive)
Cc1cn(C2CC(O)C(COC(N)=O)O2)c(=O)[nH]c1=O (stereo not given) | > 100 µM (inactive) | > 100 µM (inactive) | > 100 µM (inactive) | > 100 µM (inactive) | 71.1 µM (inactive) | > 100 µM (inactive) | > 100 µM (inactive) | > 100 µM (inactive) | > 100 µM (inactive) | > 100 µM (inactive) | > 100 µM (inactive) | > 100 µM (inactive) | > 100 µM (inactive) | > 100 µM (inactive) | > 100 µM (inactive) | > 100 µM (inactive) | > 100 µM (inactive) | > 100 µM (inactive) | > 100 µM (inactive) | > 100 µM (inactive)
CC(C)(C)OC(=O)N1C(c2cccnc2)=CC[C@H]2C3CC=C(c4cccnc4)[C@@]3(C)CC[C@@H]21 (stereo not given in full) | 3.82 µM (inactive) | 4.16 µM (inactive) | 2.52 µM (inactive) | 11.9 µM (inactive) | 5.6 µM (inactive) | 3.32 µM (inactive) | 3.44 µM (inactive) | 2.95 µM (inactive) | 3.13 µM (inactive) | 5.09 µM (inactive) | 2.81 µM (inactive) | 1.97 µM (inactive) | 6.55 µM (inactive) | 3.99 µM (inactive) | 3.05 µM (inactive) | 2.13 µM (inactive) | 3.28 µM (inactive) | 3.67 µM (inactive) | 4.22 µM (inactive) | 5.81 µM (inactive)
